Holding throughout (assay type): binding
For assay [1], the target named is T1, p53-MDM2 interaction (human MDM2 protein, amino acids 2-188) (Homo sapiens, UniProt Q00987).
T1 construct: human MDM2 protein (amino acids 2-188); made in house
As to the kind of experiment: p53-MDM2 Assay 2: slightly modified TR-FRET assay. To be noted: 0.1 nM MDM2, 0.1 nM Europium labeled streptavidin, Tecan genios Pro reader. The method, then:
(§1) Time Resolved Fluorescence Energy Transfer (TR-FRET) Assay
(§2) The inhibition of p53-MDM2 and p53-MDM4 interactions is measured by time resolved fluorescence energy transfer (TR-FRET). Fluorescence energy transfer (or Foerster resonance energy transfer) describes an energy transfer between donor and acceptor fluorescent molecules. For this assay, human MDM2 protein (amino acids 2-188) and human MDM4 protein (amino acids 2-185), tagged with a C-terminal biotin moiety, are used in combination with a Europium labeled streptavidin (Perkin Elmer, Inc., Waltham, Mass., USA) serving as the donor fluorophore. The p53 derived, Cy5 labeled peptide Cy5-TFSDLWKLL (p53 aa18-26) is the energy acceptor. Upon excitation of the donor molecule at 340 nm, binding interaction between MDM2 or MDM4 and the p53 peptide induces energy transfer and enhanced response at the acceptor emission wavelength at 665 nm. Disruption of the formation of the p53-MDM2 or p53-MDM4 complex due to an inhibitor molecule binding to the p53 binding site of MDM2 or MDM4 results in increased donor emission at 620 nm. The ratiometric FRET assay readout is calculated from the raw data of the two distinct fluorescence signals measured in time resolved mode (fluorescence 665 nm/fluorescence 620 nm×1000).
(§3) After addition of 1.25 nM MDM2-biotinylated or 2.5 nM MDM4-biotinylated (internal preparations, both MDM2 and MDM4 are biotinylated at the C-terminal of the peptide construct), and 0.625 nM Europium labeled streptavidin (Perkin Elmer), the solution is pre-incubated for 15 minutes at room temperature, then 10 nM Cy5-p53 peptide (internal preparation, the Cy5 dye is directly bound to the N-terminal part of p53 peptide construct) is added before an incubation at room temperature for 15 minutes prior to reading the plate. For measurement of samples, a Victor II microplate reader (Perkin Elmer) is used with the following settings: Excitation 340 nm, Emission Donor 620 nm and Emission Acceptor 665 nm. IC50 values are calculated by curve fitting using XLfit. If not specified, reagents are purchased from Sigma-Aldrich Chemie GmBH, Buchs, Switzerland.
(§4) This assay was used to evaluate compounds displaying inhibition of p53-MDM2 interaction and p53-MDM4 interaction at IC50s of 0.005 to 50 μM (p53-MDM2 Assay 1 and p53-MDM4 Assay 1, respectively). For selected compounds displaying IC50s between […] on MDM2, a slightly modified assay is used with the following adaptations: 0.1 nM MDM2, 0.1 nM Europium labeled streptavidin and Tecan genios Pro is used as a microplate reader for the fluorescence measurements (p53-MDM2 Assay 2).

The target in assay [2] is T1, p53-MDM2 interaction (human MDM2 protein, amino acids 2-188). As to the kind of experiment: p53-MDM2 Assay 1: TR-FRET inhibition of p53-MDM2 interaction. To be noted: 1.25 nM MDM2-biotinylated, 10 nM Cy5-p53 peptide. The method, then: as §1, §2, §3, §4
In assay [3] the target is T2, p53-MDM4 interaction (human MDM4 protein, amino acids 2-185) (Homo sapiens, UniProt O15151).
T2 construct: human MDM4 protein (amino acids 2-185); made in house
T2 sequence (O15151 2-185): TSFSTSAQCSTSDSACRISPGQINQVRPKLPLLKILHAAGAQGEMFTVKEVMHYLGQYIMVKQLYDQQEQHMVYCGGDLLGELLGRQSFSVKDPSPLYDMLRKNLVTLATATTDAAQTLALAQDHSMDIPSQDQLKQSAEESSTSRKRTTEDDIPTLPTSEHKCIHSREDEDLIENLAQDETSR
Put plainly: p53-MDM4 Assay 1: TR-FRET inhibition of p53-MDM4 interaction. To be noted: 2.5 nM MDM4-biotinylated, 10 nM Cy5-p53 peptide. The method, then: as §1, §2, §3, §4
On the technique in general: Time-resolved FRET reads energy transfer from a long-lived donor to a nearby acceptor.

T1 sequence (Q00987 2-188): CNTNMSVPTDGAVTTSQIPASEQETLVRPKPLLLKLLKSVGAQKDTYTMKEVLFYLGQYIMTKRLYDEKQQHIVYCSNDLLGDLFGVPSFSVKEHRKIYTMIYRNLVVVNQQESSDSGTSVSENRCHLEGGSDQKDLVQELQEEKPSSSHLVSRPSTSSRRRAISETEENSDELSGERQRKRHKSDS

Consider `COc1ccc(CNC(C)=O)cc1-n1nc2c(c1C(C)C)C(c1ccc(Cl)cc1C)N(c1cc(Cl)c(=O)n(C)c1)C(=O)N2` (stereo not shown) [Example 30, N-(3-(5-(5-Chloro-1-methyl-6-oxo-1,6-dihydropyridin-3-yl)-4-(4-chloro-2-methylphenyl)-3-isopropyl-6-oxo-4,5,6,7-tetrahydro-2H-pyrazolo[3,4-d]pyrimidin-2-yl)-4-methoxybenzyl)acetamide], for which the IC50 in assay [1] worked out at 0.21 nM. On the same count and under the same terms, then `COc1ccc(CNC=O)cc1-n1nc2c(c1C(C)C)C(c1ccc(Cl)cc1C)N(c1cc(Cl)ccc1C)C(=O)N2` (stereo not shown) [Example 27, N-(3-(4-(4-Chloro-2-methylphenyl)-5-(5-chloro-2-methylphenyl)-3-isopropyl-6-oxo-4,5,6,7-tetrahydro-2H-pyrazolo[3,4-d]pyrimidin-2-yl)-4-methoxybenzyl)formamide], with 0.11 nM. Consider `COc1ccccc1-n1nc2c(c1C(C)C)C(c1ccc(Cl)cc1C)N(c1cc(Cl)ccc1C)C(=O)N2` (stereo not shown) [Example 10, 4-(4-Chloro-2-methyl-phenyl)-5-(5-chloro-2-methyl-phenyl)-3-isopropyl-2-(2-methoxy-phenyl)-2,4,5,7-tetrahydro-pyrazolo[3,4-d]pyrimidin-6-one], for which the values for the IC50 in assay [2], in assay [1] and in assay [3] were 1.1 nM, 0.21 nM and 4700 nM, respectively. For `CCn1cc(N2C(=O)Nc3nn(-c4ccccc4OC)c(C(C)C)c3C2c2ccc(Cl)cc2)cc(Cl)c1=O` (stereo not shown) [Example 14, 5-(5-Chloro-1-ethyl-6-oxo-1,6-dihydro-pyridin-3-yl)-4-(4-chloro-phenyl)-3-isopropyl-2-(2-methoxy-phenyl)-2,4,5,7-tetrahydro-pyrazolo[3,4-d]pyrimidin-6-one], the figures for the IC50 in assay [2], in assay [1] and in assay [3] were 1.5 nM, 0.33 nM and 1480 nM, respectively.

Consider `COc1ccccc1-n1nc2c(c1C(C)C)C(c1ccc(Cl)cc1)N(c1cc(Cl)c(=O)n(C)c1)C(=O)N2` (stereo not shown) [Example 13, 5-(5-Chloro-1-methyl-6-oxo-1,6-dihydro-pyridin-3-yl)-4-(4-chloro-phenyl)-3-isopropyl-2-(2-methoxy-phenyl)-2,4,5,7-tetrahydro-pyrazolo[3,4-d]pyrimidin-6-one], for which the IC50 was found to be 1.6 nM in assay [2], 0.25 nM in assay [1] and 2180 nM in assay [3]. On the same counts, the results for `CCn1cc(N2C(=O)Nc3nn(-c4ccccc4OC)c(C(C)C)c3C2c2ccc(Cl)cc2C)cc(Cl)c1=O` (stereo not shown) [Example 21, 5-(5-Chloro-1-ethyl-6-oxo-1,6-dihydropyridin-3-yl)-4-(4-chloro-2-methylphenyl)-3-isopropyl-2-(2-methoxyphenyl)-4,5-dihydro-2H -pyrazolo[3,4-d]pyrimidin-6(7H)-one] are 1.4 nM, 0.19 nM and 1630 nM.

As to `COc1ccc(C#N)cc1-n1nc2c(c1C(C)C)C(c1ccc(Cl)cc1C)N(c1cc(Cl)c(=O)n(C)c1)C(=O)N2` (stereo not shown) [Example 24, 3-(5-(5-Chloro-1-methyl-6-oxo-1,6-dihydropyridin-3-yl)-4-(4-chloro-2-methylphenyl)-3-isopropyl-6-oxo-4,5,6,7-tetrahydro-2H-pyrazolo[3,4-d]pyrimidin-2-yl)-4-methoxybenzonitrile], the 50% inhibitory concentration (IC50) in assay [1] worked out at 0.14 nM.

On to `COc1ccccc1-n1nc2c(c1C(C)C)C(c1ccc(Cl)cc1)N(c1cc(Cl)c(=O)n(CCN(C)C)c1)C(=O)N2` (stereo not shown) [Example 22, 5-[5-Chloro-1-(2-dimethylamino-ethyl)-6-oxo-1,6-dihydro-pyridin-3-yl]-4-(4-chloro-phenyl)-3-isopropyl-2-(2-methoxy-phenyl)-2,4,5,7-tetrahydro-pyrazolo[3,4-d]pyrimidin-6-one], for which the half-maximal inhibitory concentration (IC50) turned out to be 2.7 nM in assay [2], 1.43 nM in assay [1] and 6230 nM in assay [3]. Take `COc1ncc(-n2nc3c(c2C(C)C)C(c2ccc(Cl)cc2C)N(c2cc(Cl)cn(C)c2=O)C(=O)N3)c(OC)n1` (stereo not shown) [Example 32, 5-(5-Chloro-1-methyl-2-oxo-1,2-dihydropyridin-3-yl)-4-(4-chloro-2-methylphenyl)-2-(2,4-dimethoxypyrimidin-5-yl)-3-isopropyl-4,5-dihydro-2H-pyrazolo[3,4-d]pyrimidin-6(7H)-one]: in assay [1], the concentration for half-maximal inhibition (IC50) is 0.21 nM. Regarding `COc1ccccc1-n1nc2c(c1C(C)C)C(c1ccc(Cl)cc1)N(c1cc(Cl)c(=O)n(CCO)c1)C(=O)N2` (stereo not shown) [Example 18, 5-[5-Chloro-1-(2-hydroxy-ethyl)-6-oxo-1,6-dihydro-pyridin-3-yl]-4-(4-chloro-phenyl)-3-isopropyl-2-(2-methoxy-phenyl)-2,4,5,7-tetrahydro-pyrazolo[3,4-d]pyrimidin-6-one], the results for the IC50 in assay [2], in assay [1] and in assay [3] were 1.6 nM, 0.56 nM and 2370 nM, respectively. In the case of `COc1ncc(-n2nc3c(c2C(C)C)C(c2ccc(Cl)cc2C)N(c2cc(Cl)c(=O)n(C)c2)C(=O)N3)c(OC)n1` (stereo not shown) [Example 31, 5-(5-Chloro-1-methyl-6-oxo-1,6-dihydropyridin-3-yl)-4-(4-chloro-2-methylphenyl)-2-(2,4-dimethoxypyrimidin-5-yl)-3-isopropyl-4,5-dihydro-2H-pyrazolo[3,4-d]pyrimidin-6(7H)-one], the IC50 in assay [1] worked out at 0.29 nM. With `COc1ccccc1-n1nc2c(c1C(C)C)C(c1ccc(Cl)cc1C)N(c1cc(Cl)c(=O)n(C)c1)C(=O)N2` (stereo not shown) [Example 15, 5-(5-Chloro-1-methyl-6-oxo-1,6-dihydro-pyridin-3-yl)-4-(4-chloro-2-methyl-phenyl)-3-isopropyl-2-(2-methoxy-phenyl)-2,4,5,7-tetrahydro-pyrazolo[3,4-d]pyrimidin-6-one], the IC50 in assay [2] was determined as 1.45 nM; in assay [1] it was 0.18 nM; in assay [3], 1550 nM. Turning to `COc1ccc(C#N)cc1-n1nc2c(c1C(C)C)C(c1ccc(Cl)cc1C)N(c1cc(Cl)ccc1C)C(=O)N2` (stereo not shown) [Example 23, 3-(4-(4-Chloro-2-methylphenyl)-5-(5-chloro-2-methylphenyl)-3-isopropyl-6-oxo-4,5,6,7-tetrahydro-2H-pyrazolo[3,4-d]pyrimidin-2-yl)-4-methoxybenzonitrile], the IC50 in assay [1] worked out at 0.15 nM.

For `COc1ccc(CN)cc1-n1nc2c(c1C(C)C)C(c1ccc(Cl)cc1C)N(c1cc(Cl)c(=O)n(C)c1)C(=O)N2` (stereo not shown) [Example 29, 2-(5-(Aminomethyl)-2-methoxyphenyl)-5-(5-chloro-1-methyl-6-oxo-1,6-dihydropyridin-3-yl)-4-(4-chloro-2-methylphenyl)-3-isopropyl-4,5-dihydro-2H-pyrazolo[3,4-d]pyrimidin-6(7H)-one], the IC50 in assay [1] came to 0.18 nM.

Regarding `COc1ccc(CNC(C)=O)cc1-n1nc2c(c1C(C)C)C(c1ccc(Cl)cc1C)N(c1cc(Cl)ccc1C)C(=O)N2` (stereo not shown) [Example 26, N-(3-(4-(4-Chloro-2-methylphenyl)-5-(5-chloro-2-methylphenyl)-3-isopropyl-6-oxo-4,5,6,7-tetrahydro-2H-pyrazolo[3,4-d]pyrimidin-2-yl)-4-methoxybenzyl)acetamide], the IC50 in assay [1] was found to be 0.13 nM. On to `COc1ccc(C(N)=O)cc1-n1nc2c(c1C(C)C)C(c1ccc(Cl)cc1C)N(c1cc(Cl)ccc1C)C(=O)N2` (stereo not shown) [Example 28, 3-(4-(4-Chloro-2-methylphenyl)-5-(5-chloro-2-methylphenyl)-3-isopropyl-6-oxo-4,5,6,7-tetrahydro-2H-pyrazolo[3,4-d]pyrimidin-2-yl)-4-methoxybenzamide], for which, in assay [1], the IC50 was determined as 0.24 nM. Same read-out and setting: then `COc1ccc(CN)cc1-n1nc2c(c1C(C)C)C(c1ccc(Cl)cc1C)N(c1cc(Cl)ccc1C)C(=O)N2` (stereo not shown) [Example 25, 2-(5-(Aminomethyl)-2-methoxyphenyl)-4-(4-chloro-2-methylphenyl)-5-(5-chloro-2-methylphenyl)-3-isopropyl-4,5-dihydro-2H-pyrazolo[3,4-d]pyrimidin-6(7H)-one], with 0.12 nM.

Usually IC50 stands for the point on the concentration scale where inhibition reaches its midpoint.

For the origin of these results see patent publication US9556180B2, “Pyrazolo[3,4-d]pyrimidinone compounds as inhibitors of the P53/MDM2 interaction” (Novartis AG, priority 2013, dated 2017).
